Assay [1] has as its target T1, Mouse 5-HT6 (Mus musculus, UniProt Q9R1C8).
T1 construct: expressed in transfected cells
The assay is described as follows: 5-HT6 receptor binding assay ([3H]5-HT displacement, SPA), mouse receptor. The protocol:
(§1) 5-HT6 Receptor Binding Assay
(§2) Affinity (IC50) of a compound for cloned human, rat, or mouse 5-HT6 receptor was measured by its ability to displace [^3H]5-HT using cell membranes prepared from cultured cells and scintillation proximity assay (SPA) beads that bind to cell membranes (Catalog No. RPNQ0001; GE Healthcare Life Sciences, Piscataway, N.J.). Assays were carried out in 200 μl binding buffer (50 mM Tris-HCl, pH 7.4, 5 mM MgCl2, 0.5 mM EDTA, 10 μM pargyline and 0.1% ascorbic acid) in 96-well plates. Cell membranes were re-suspended in binding buffer to final concentration of up to 0.2 mg protein/ml and mixed with reconstituted SPA beads to a final concentration of 0.25 mg/ml. To each well, […] of above mixture, 50 of cold compound (to 10^−10 to 10^−5 M final concentration) and 50 μl of [^3H]5-HT radioligand (specific activity, 100 Ci/mmol, GE Healthcare Life Sciences; final concentration, 5 nM) were added. Following 1 h incubation at room temperature, the radioactivity bound to the cell membranes was measured on a scintillation counter.

The target of assay [2] is T2, Human 5-HT6 (Homo sapiens, UniProt P50406).
T2 construct: expressed in transfected cells
In words: 5-HT6 receptor binding assay ([3H]5-HT displacement, SPA), human receptor. As for the experimental part:
as §1, §2

Assay [3] deals with 5-HT6 receptor expressed in CHO cells. In words: 5-HT6 receptor functional activity assay (cellular cAMP levels, CHO cells). It is filed as cell-based, human, rat, or mouse. As to conditions: concentration up to 10 micromolar; cAMP accumulation; species not specified. The protocol: 5-HT6 Receptor Functional Activity Assay.
The functional activation of human, rat, or mouse 5-HT6 receptor expressed in CHO cells was determined by measuring cellular cAMP levels following the exposure of the cells to a compound using the SPA cAMP Screening System (Catalog No. RPA556, GE Healthcare) in 96-well OptiPlates (Catalog No. 6005190, PerkinElmer, Boston, Mass.). Cells expressing recombinant receptors were harvested and then re-suspended at approximately 2.0×10^6 cells/ml in assay medium containing Earle's Balanced Salt Solution (EBSS, pH 7.4) supplemented with 25 mM Hepes, 5 mM MgCl2 and 0.05% BSA. Cells (50 μl, ˜10^5 cells) were transferred to wells, to give a final volume of 100 μl containing various concentrations of compounds. The plate was incubated at 37° C. for 30 min and the reaction was terminated by boiling for 3 min. The accumulation of cAMP in 15 μl lysate was measured according to manufacture's instructions.

[4] abbreviates: cloned mouse 5-HT6 receptor, cell membranes, [3H]5-HT 5 nM, read-out: Mouse 5-HT6 binding IC50.
Setting [5] is: cloned human 5-HT6 receptor, cell membranes, [3H]5-HT 5 nM, read-out: Human 5-HT6 binding IC50.

Each structure is given as a SMILES string. Where two headings read alike, the source gives them in different places.

T2 sequence (P50406 whole entry): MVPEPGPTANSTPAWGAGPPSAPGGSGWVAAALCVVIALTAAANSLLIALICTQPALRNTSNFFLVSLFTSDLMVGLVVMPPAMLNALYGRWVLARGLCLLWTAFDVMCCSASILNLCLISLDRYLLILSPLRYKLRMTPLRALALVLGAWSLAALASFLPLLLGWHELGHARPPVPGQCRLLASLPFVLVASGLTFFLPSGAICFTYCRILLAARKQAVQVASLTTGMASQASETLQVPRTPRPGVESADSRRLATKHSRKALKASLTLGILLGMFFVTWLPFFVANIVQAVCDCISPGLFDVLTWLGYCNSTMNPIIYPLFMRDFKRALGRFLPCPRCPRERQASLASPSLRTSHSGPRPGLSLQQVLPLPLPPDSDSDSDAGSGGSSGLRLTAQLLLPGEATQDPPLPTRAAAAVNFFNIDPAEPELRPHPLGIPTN
T1 sequence (Q9R1C8 whole entry): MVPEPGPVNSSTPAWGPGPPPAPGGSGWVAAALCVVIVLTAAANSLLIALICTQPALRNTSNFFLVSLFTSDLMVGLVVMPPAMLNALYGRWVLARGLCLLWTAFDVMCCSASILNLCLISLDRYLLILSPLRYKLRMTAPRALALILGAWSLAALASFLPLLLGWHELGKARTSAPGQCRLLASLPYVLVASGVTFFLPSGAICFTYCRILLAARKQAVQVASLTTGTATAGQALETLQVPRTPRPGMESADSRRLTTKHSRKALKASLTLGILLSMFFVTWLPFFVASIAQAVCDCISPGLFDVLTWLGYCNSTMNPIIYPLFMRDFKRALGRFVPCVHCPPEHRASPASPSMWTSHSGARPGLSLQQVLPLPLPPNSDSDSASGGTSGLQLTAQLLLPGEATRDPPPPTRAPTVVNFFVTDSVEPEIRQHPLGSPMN

As to `Cl.O=S(=O)(c1ccccc1)n1cc(CCNCc2cccc(OCC(F)(F)C(F)F)c2)c2ccc(F)cc21` [Example 1], the values for the 50% inhibitory concentration (IC50) in assay [1] (setting [4]) and in assay [2] (setting [5]) were 2 nM and 0.2 nM, respectively. Also, the “functional activation of 5-HT6 receptor (detectable activity)” value in assay [3] is on record as “did not show detectable activity”.
As to `O=S(=O)(c1ccc(OC(F)(F)F)cc1)n1cc(CCNCc2cccc(OCC(F)(F)C(F)F)c2)c2ccc(F)cc21` [Example 2], the results for the IC50 in assay [1] and in assay [2] were 211 nM and 46.4 nM, respectively.
In the case of `COc1cccc(S(=O)(=O)n2cc(CCNCc3cccc(OCC(F)(F)C(F)F)c3)c3ccc(F)cc32)c1` [Example 3], the half-inhibitory concentration (IC50) in assay [1] (setting [4]) worked out at 170 nM; in assay [2] (setting [5]) it was 0.593 nM.
As to `O=S(=O)(c1cccc(Cl)c1)n1cc(CCNCc2cccc(OCC(F)(F)C(F)F)c2)c2ccc(F)cc21` [Example 4], the 50% inhibitory concentration (IC50) in assay [1] (setting [4]) turned out to be 60.2 nM; in assay [2] (setting [5]), 0.805 nM.
Consider `O=S(=O)(c1cc(Cl)cc(Cl)c1)n1cc(CCNCc2cccc(OCC(F)(F)C(F)F)c2)c2ccc(F)cc21` [Example 5], for which the results for the IC50 in assay [1] (setting [4]) and in assay [2] (setting [5]) were 148 nM and 2.88 nM, respectively.
For the compound `O=S(=O)(c1ccc(F)cc1)n1cc(CCNCc2cccc(OCC(F)(F)C(F)F)c2)c2ccc(F)cc21` [Example 6], the half-inhibitory concentration (IC50) turned out to be 21.6 nM in assay [1] and 2.88 nM in assay [2].
Take `O=S(=O)(c1ccc(Cl)cc1)n1cc(CCNCc2cccc(OCC(F)(F)C(F)F)c2)c2ccc(F)cc21` [Example 7]: the IC50 in assay [1] (setting [4]) is 7.27 nM; in assay [2] (setting [5]), 3.4 nM.
For `O=S(=O)(c1ccc(Br)cc1)n1cc(CCNCc2cccc(OCC(F)(F)C(F)F)c2)c2ccc(F)cc21` [Example 8] the same measures were 15.4 nM and 2.05 nM.
For `O=S(=O)(c1ccc(F)c(Cl)c1)n1cc(CCNCc2cccc(OCC(F)(F)C(F)F)c2)c2ccc(F)cc21` [Example 9] the same measures were 127 nM and 8.85 nM.
The like results for `O=S(=O)(c1cccc(C(F)(F)F)c1)n1cc(CCNCc2cccc(OCC(F)(F)C(F)F)c2)c2ccc(F)cc21` [Example 10] were, in that order, 60 nM and 0.626 nM.
Take `O=S(=O)(c1cccc(F)c1)n1cc(CCNCc2cccc(OCC(F)(F)C(F)F)c2)c2ccc(F)cc21` [Example 11]: the 50% inhibitory concentration (IC50) was determined as 17.6 nM in assay [1] (setting [4]) and 0.371 nM in assay [2] (setting [5]).
Consider `CS(=O)(=O)n1cc(CCNCc2cccc(OCC(F)(F)C(F)F)c2)c2ccc(F)cc21` [Example 12], for which the IC50 in assay [1] was determined as 9.51 nM; in assay [2], 1.61 nM.
The like results for `CCS(=O)(=O)n1cc(CCNCc2cccc(OCC(F)(F)C(F)F)c2)c2ccc(F)cc21` [Example 13] were, in that order, 11.7 nM and 2.62 nM.
Take `CC(C)S(=O)(=O)n1cc(CCNCc2cccc(OCC(F)(F)C(F)F)c2)c2ccc(F)cc21` [Example 14]: the IC50 in assay [1] (setting [4]) amounted to 57.1 nM; in assay [2] (setting [5]), 20 nM.
In the case of `COc1ccc(S(=O)(=O)n2cc(CCNCc3cccc(OCC(F)(F)C(F)F)c3)c3ccc(F)cc32)cc1` [Example 15], the concentration for half-maximal inhibition (IC50) in assay [1] (setting [4]) turned out to be 187 nM; in assay [2] (setting [5]) it was 10.2 nM.

The record behind these values is patent US8138219B2, “Tryptamine sulfonamides as 5-HT6 antagonists” (Merck Sharp & Dohme Corp., priority 2007, dated 2012).
